Reference: BindingDB's records for patent US12202839 (University of Virginia Patent Foundation, 2025)

Molecular target: Protein tyrosine phosphatase type IVA 3 (Homo sapiens, UniProt O75365)
Assay: PTP4A3 Enzymatic Assay

Protein tyrosine phosphatase type IVA 3, sequence (O75365 whole entry): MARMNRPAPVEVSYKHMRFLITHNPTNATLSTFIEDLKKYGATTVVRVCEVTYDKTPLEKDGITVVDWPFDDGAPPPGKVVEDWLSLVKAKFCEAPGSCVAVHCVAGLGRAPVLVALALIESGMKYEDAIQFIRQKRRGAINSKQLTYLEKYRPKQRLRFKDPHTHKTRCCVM

O=C1NC(=O)c2sc(-c3ccccc3)cc2C1=O [US12202839, Compound 15]
IC50: 162 nM
